Data published in ChEMBL document CHEMBL1127924, “Synthesis and structure - anti-tumor-promoting activity relationship of monogalactosyl diacylglycerols” (1994).

How the values were obtained:
Human gammaherpesvirus 4 [1] = experiment: Inhibitory activity against TPA-induced Epstein-Barr virus early antigen (EBV-EA) activation at a concentration of 10 mol ratio/TPA; values are per cent of control
Human gammaherpesvirus 4 [2] = experiment: Inhibitory activity against TPA-induced Epstein-Barr virus early antigen (EBV-EA) activation at a concentration of 100 mol ratio/TPA; values are per cent of control
Human gammaherpesvirus 4 [3] = experiment: Inhibitory activity against TPA-induced Epstein-Barr virus early antigen (EBV-EA) activation at a concentration of 500 mol ratio/TPA; assay type: functional; set-up: scale not given: the % may be the effect or the level left
Human gammaherpesvirus 4 [4] = experiment: Inhibitory activity against TPA-induced Epstein-Barr virus early antigen (EBV-EA) activation at a concentration of 1000 mol ratio/TPA; assay type: functional

Row | SMILES | EBV-EA activation (% of control) (Human gammaherpesvirus 4 [1]) | EBV-EA activation (% of control) (Human gammaherpesvirus 4 [2]) | Control (Human gammaherpesvirus 4 [3]) | EBV-EA activation (% of control) (Human gammaherpesvirus 4 [4])
1 | CCCCC/C=C/C/C=C/CCCCCCCC(=O)O[C@H](COC(=O)CCCCCCCCCCCCC)CO[C@@H]1O[C@H](CO)[C@H](O)[C@H](O)[C@H]1O | 100% | 88.2% | 39.6% | 17.1%
2 | CCCCCCCCCCCCCC(=O)OC[C@H](CO[C@@H]1O[C@H](CO)[C@H](O)[C@H](O)[C@H]1O)OC(=O)CCCCCCCCCCCCC | 100% | 88.2% | 15.4% | 0%
3 | CCCCCCCCC/C=C/C=C/C=C/C=C/C=C/C=C/C(=O)OC[C@H](CO[C@@H]1O[C@H](CO)[C@H](O)[C@H](O)[C@H]1O)OC(=O)CCCCCCCCCCCCC | 100% | 68.9% | 29.7% | 13.8%
4 | CCCCCCCCC/C=C/C=C/C=C/C=C/C=C/C(=O)OC[C@H](CO[C@@H]1O[C@H](CO)[C@H](O)[C@H](O)[C@H]1O)OC(=O)/C=C/C=C/C=C/C=C/C=C/CCCCCCCCC | 100% | 89% | 54.3% | 0%
5 | CCCCCCCC/C=C/CCCCCCCC(=O)OC[C@H](CO[C@@H]1O[C@H](CO)[C@H](O)[C@H](O)[C@H]1O)OC(=O)/C=C/C=C/C=C/C=C/C=C/CCCCCCCCC | 81.7% | 53.6% | 0% | 0%
6 | CCCCC/C=C/C/C=C/CCCCCCCC(=O)O[C@H](COC(=O)CCCCCCC/C=C/CCCCCC)CO[C@@H]1O[C@H](CO)[C@H](O)[C@H](O)[C@H]1O | 100% | 100% | 74.6% | 53.3%
7 | CCCCCCCC/C=C/CCCCCCCC(=O)OC[C@H](CO[C@@H]1O[C@H](CO)[C@H](O)[C@H](O)[C@H]1O)OC(=O)/C=C/C=C/C=C/C=C/C=C/C=C/CCCCCCCCC | 88.4% | 68.1% | 26.4% | 0%
8 | CCCCCCCCC/C=C/C=C/C=C/C=C/C=C/C(=O)O[C@H](COC(=O)CCCCCCCCCCCCC)CO[C@@H]1O[C@H](CO)[C@H](O)[C@H](O)[C@H]1O | 90.7% | 72.8% | 30.6% | 15.8%
9 | CC/C=C/C/C=C/C/C=C/CCCCCCCC(=O)O[C@H](COC(=O)CCCCCCC/C=C/C/C=C/CCCCC)CO[C@@H]1O[C@H](CO)[C@H](O)[C@H](O)[C@H]1O | 84.9% | 64.5% | 22.2% | 8.7%
10 | CC/C=C/C/C=C/C/C=C/CCCCCCCC(=O)O[C@H](COC(=O)CCCCCCCCCCCCCCC)CO[C@@H]1O[C@H](CO)[C@H](O)[C@H](O)[C@H]1O | 100% | 92.6% | 57.6% | 19.4%
11 | CCCCCCCCCCCCCC(=O)OC[C@@H](CO[C@@H]1O[C@H](CO)[C@H](O)[C@H](O)[C@H]1O)OC(C)=O | 77.4% | 52.9% | 36.8% | 17.4%
12 | CCC=CCC=CCC=CCCCCCCCC(=O)O[C@@H](COC(=O)CCCCCCCCCCCCC)CO[C@@H]1O[C@H](CO)[C@H](O)[C@H](O)[C@H]1O | 100% | 73.9% | 20.2% | 0%
13 | CCCCCCCCC/C=C/C=C/C=C/C=C/C=C/C(=O)O[C@@H](COC(=O)CCCCCCCCCCCCC)CO[C@@H]1O[C@H](CO)[C@H](O)[C@H](O)[C@H]1O | 100% | 84.1% | 52.8% | 26.1%
14 | CCCCCCCC/C=C/CCCCCCCC(=O)O[C@H](COC(=O)C=C/C=C/C=C/C=C/C=C/C=C/CCCCCCCCC)CO[C@@H]1O[C@H](CO)[C@H](O)[C@H](O)[C@H]1O | 83.2% | 62.9% | 12.8% | 0%
15 | CCCCCCCC/C=C/CCCCCCCC(=O)O[C@H](COC(=O)CCCCCCCCCCCCC)CO[C@@H]1O[C@H](CO)[C@H](O)[C@H](O)[C@H]1O | 100% | 80.4% | 16.9% | 0%
16 | CCCCCCCCC/C=C/C=C/C=C/C=C/C=C/C=C/C(=O)OC[C@H](CO[C@@H]1O[C@H](CO)[C@H](O)[C@H](O)[C@H]1O)OC(=O)/C=C/C=C/C=C/C=C/C=C/C=C/CCCCCCCCC | 86.8% | 64.8% | 26.3% | 0%
17 | OC[C@@H](O)CO[C@@H]1O[C@H](CO)[C@H](O)[C@H](O)[C@H]1O | 100% | 66.7% | 15.8% | 0%
18 | CCCCCCCC/C=C/CCCCCCCC(=O)OCC(O)CO[C@@H]1O[C@H](CO)[C@H](O)[C@H](O)[C@H]1O (single isomer, unassigned) | 100% | 84.7% | 0% | 0%
19 | CCCCCCCCCCCCCC(=O)OCC(O)CO[C@@H]1O[C@H](CO)[C@H](O)[C@H](O)[C@H]1O (single isomer, unassigned) | 90.7% | 65.3% | 22.5% | 0%
20 | CCCCC/C=C/C/C=C/CCCCCCCC(=O)OCC(O)CO[C@@H]1O[C@H](CO)[C@H](O)[C@H](O)[C@H]1O (single isomer, unassigned) | 100% | 79.8% | 24.1% | 0%
21 | CCCCCCCC/C=C/CCCCCCCC(=O)OCC(CO[C@@H]1O[C@H](CO)[C@H](O)[C@H](O)[C@H]1O)OC(=O)CCCCCCC/C=C/CCCCCCCC (single isomer, unassigned) | 61% | 21.3% | 11% | 0%
22 | CCCCCCCCCC=CC=CC=CC=CC=CC=CC(=O)OC(COC(=O)CCCCCCCCCCCCC)CO[C@@H]1O[C@H](CO)[C@H](O)[C@H](O)[C@H]1O (single isomer, unassigned) | 100% | 88.3% | 64.7% | 0%
23 | CCCCCCCCC=CCCCCCCCC(=O)OC(COC(=O)C=CC=CC=CC=CC=CCCCCCCCCC)CO[C@@H]1O[C@H](CO)[C@H](O)[C@H](O)[C@H]1O (single isomer, unassigned) | 93.2% | 69.6% | 18.5% | 0%
